Laboratory results taken from patent US20240199881A1, “METAL COMPLEX DYES FOR INKJET PRINTING” (Videojet Technologies Inc., priority 2021, published 2024).

Assay: Saturated solubility testing in butanone and ethanol
Format: physicochemical
Settings: for Solubility (w/w) in butanone: solvent butanone; for Solubility (w/w) in ethanol: solvent ethanol

CCC(C)(C)c1cc2c(c([N+](=O)[O-])c1)[O][Fe]1([O]c3ccc4ccccc4c3/N=N/2)[O]c2ccc3ccccc3c2/N=N/c2cc(C(C)(C)CC)cc([N+](=O)[O-])c2[O]1 [Example 60]
Solubility (w/w) in butanone: ≥20% (w/w) | Solubility (w/w) in ethanol: <2% (w/w)

O=[N+]([O-])c1ccc2c(c1)[O][Fe]1([O]c3cc([N+](=O)[O-])ccc3/N=N/c3c(ccc4ccccc34)[O]1)[O]c1ccc3ccccc3c1/N=N/2 [Example 29]
Solubility (w/w) in butanone: 50% (w/w) | Solubility (w/w) in ethanol: <1% (w/w)

O=[N+]([O-])c1ccc2c(c1)/N=N/c1c(ccc3ccccc13)[O][Fe]1([O]2)[O]c2ccc([N+](=O)[O-])cc2/N=N/c2c(ccc3ccccc23)[O]1 [Example 59]
Solubility (w/w) in butanone: 6% (w/w) | Solubility (w/w) in ethanol: <1% (w/w)
